Results from US11286278B2, “DPEP-1 binding agents and methods of use” (Arch Biopartners, Inc., priority 2018, dated 2022).
“Also recorded” adds a separate entry of the source. Ends that are not written are not given here.

Key:
[1] = Circular dichroism spectroscopy of LSALT peptide and analogs; format: physicochemical; design: Inducible Helical Structure (50% TFE-benign): unit not given here
Experimental: The physical and chemical properties of protein therapeutics are critical factors that influence the ease of manufacturing, development and clinical use. The LSALT peptide was evaluated in terms of its solubility, aggregation state and stability using a variety of biophysical methods.
In circular dichroism spectroscopy the ellipticity value at 222 nm is a measure of a-helical content. 50% trifluoroethanol is a hydrophobic solvent and induces α-helical structure if the structure can be induced. All of the peptides tested can be induced to adopt α-helical structure. The peptides are random coils in benign conditions (non-denaturing). The buffer conditions were aqueous phosphate, pH 7.0.

human DPEP2 = biological target: T1, human DPEP2 (Homo sapiens, UniProt Q9H4A9); experiment: Immunofluorescence binding to Cos-1 cells transfected with human DPEP2; conditions: Alexa-488 conjugate
T1 construct: expressed in transfected cells; host or cells: Cos-1
T1 sequence (Q9H4A9 33-463): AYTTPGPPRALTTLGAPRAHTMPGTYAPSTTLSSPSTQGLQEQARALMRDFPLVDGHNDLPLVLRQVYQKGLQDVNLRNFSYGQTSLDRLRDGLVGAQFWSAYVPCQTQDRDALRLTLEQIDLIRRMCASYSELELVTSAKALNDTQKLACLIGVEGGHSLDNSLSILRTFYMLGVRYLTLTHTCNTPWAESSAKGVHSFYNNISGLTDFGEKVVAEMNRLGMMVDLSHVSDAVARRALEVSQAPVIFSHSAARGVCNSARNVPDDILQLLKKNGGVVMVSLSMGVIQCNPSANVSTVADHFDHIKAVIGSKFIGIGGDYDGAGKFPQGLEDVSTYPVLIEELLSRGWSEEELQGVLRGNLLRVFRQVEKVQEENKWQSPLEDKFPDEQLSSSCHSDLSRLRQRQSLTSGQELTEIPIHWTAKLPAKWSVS
Experimental: Cos-1 cells were transiently transfected with either 3 μg of human DPEP-1, DPEP2, or DPEP3 gene using Lipofectamine 2000 (Invitrogen) reagent in OptiMEM medium. 24 hours after transfection, DPEP-1, DPEP2, or DPEP3 expressing cells were re-seeded on collagen coated (neutralized) wells in 24 well plates and allowed to grow for 24 hours at 37° C. […] Cells were blocked with FBS/NBSA/Tween in PBS for 30 minutes on ice. Cells were then washed with PBS and incubated with LSALT or GFE-1, conjugated with Alexa-488 (green). After incubation, cells were washed with PBS and stained with DAPI for 5 minutes on ice. Cells were then washed with PBS and fixed using 4% paraformaldehyde and immunofluorescence microscopy was performed to assess binding. Representative photomicrographs are shown for each experimental condition (n=3) in FIG. 6A. Proteins from DPEP-1, DPEP2 and DPEP3 transfected cells were isolated after 48 hours using octyl-glucoside/RIPA lysis buffer and western blot analysis was performed to assess DPEP-1, DPEP2 and DPEP3 protein expression using specific antibodies; DPEP-1 antibody (Sigma), DPEP2 (Abcam) and DPEP3 (Santacruz). Blots were stripped and reprobed with an anti-β-actin.

DPEP1 = biological target: T2, DPEP1 (Homo sapiens, UniProt P16444); experiment: Immunofluorescence binding of Alexa-488 conjugated peptides to Cos-1 cells transfected with human DPEP-1; design: expressed in transfected cells; host or cells: Cos-1; conditions: Alexa-488 conjugate, on ice 30 minutes
T2 sequence (P16444 17-385): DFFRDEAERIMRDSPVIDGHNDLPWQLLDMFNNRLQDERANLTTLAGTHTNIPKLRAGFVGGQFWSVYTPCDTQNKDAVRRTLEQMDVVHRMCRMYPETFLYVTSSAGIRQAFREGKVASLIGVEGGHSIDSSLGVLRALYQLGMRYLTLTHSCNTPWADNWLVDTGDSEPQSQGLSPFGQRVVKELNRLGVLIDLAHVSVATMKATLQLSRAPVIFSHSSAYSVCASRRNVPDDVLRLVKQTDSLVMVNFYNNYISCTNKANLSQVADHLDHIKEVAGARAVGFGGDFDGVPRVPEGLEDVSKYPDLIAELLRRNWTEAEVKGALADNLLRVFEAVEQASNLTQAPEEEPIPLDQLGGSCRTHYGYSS
Experimental: 24 hours after transfection, DPEP-1 expressing cells weer reseeded on 24 well collagen coated (neutralized) plates and allowed to grow for 24 hours at 37° C. […] Cells were blocked with FBS/NBSA/Tween in PBS for 30 minutes on ice. Cells were then washed with PBS and incubated with Alexa-488 (green) conjugated LSALT, GFE-1, control peptide or DPEP-1 antibody ( 1/100) (Sigma) on ice for 30 minutes. After incubation, cells were washed with PBS and stained with DAPI for 4 minutes on ice. Cells were again washed with PBS, fixed using 4% paraformaldehyde and immunofluoresence microscopy was performed to assess binding. Proteins from human DPEP-1 transfected cells were isolated after 48 hours using octyl-glucoside/RIPA in the absence of protease inhibitors. […] Values shown are the mean ±s.e.m. from six independent experiments; asterisks (***) indicate P<0.001 as compared with DPEP-1 transfected cells (one-way ANOVA with the Neuman-Keuls post-test)[…]. Proteins from transfected cells were isolated after 48 hours using octyl-glucoside/RIPA lysis buffer and western blot analysis was performed to assess DPEP-1 expression using DPEP-1 antibody (Sigma). […]

For H-LSALTPSPSWLKYKAL [LSALT], the “Inducible Helical Structure (50% TFE-benign)” value ([1]; 222 nm) was 23,925, the “[θ] (222 nm) 50% TFE” value ([1]; 222 nm, 50% TFE) was −72298 and the “% Inducible Helical Structure (Inducible/50% TFE)” value ([1]; 222 nm, 50% TFE is considered 100% folded) was 33.1%. For the same substance, the “[θ] (222 nm) Benign (No TFE)” value ([1]; 222 nm, benign buffer (100 mM KCl, 50 mM Na2HPO4/NaH2PO4, pH 7.0)) was −48373, the “secondary structure by CD” value ([1]; aqueous buffer / benign conditions, pH 7.0) was “minima at 222 nm characteristic of a α-helical conformation” and the “binding to human DPEP2 transfected Cos-1 cells” value (human DPEP2) was “does not Bind”. For the same substance, the “binding of fluorescently labelled peptide to human DPEP-1 transfected Cos-1 cells” value (DPEP1) was “Binds; also recorded: Fluorescent peptide binding is only seen with DPEP1 transfection”.
